{"source": "patent US20200069691A1", "about": "“HETEROCYCLIC COMPOUNDS AS HIV PROTEASE INHIBITORS” (Merck Sharp & Dohme Corp., priority 2016, published 2020)", "molecular_target": "T1, wild-type HIV-1 protease (Human immunodeficiency virus type 1 group M subtype B, UniProt P04585)", "T1 construct": "Escherichia coli expressed wild-type HIV-1 protease protein", "test": "Assay for Inhibition of Microbial Expressed HIV Protease (peptide substrate cleavage, LC-MS/MS readout)", "format": "biochemical", "conditions": "E. coli expressed wild-type HIV-1 protease, mean of at least two independent experiments, read-out: HIV Pr Enzyme HIV1 PR IC50", "procedure,_shortened": "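E. coli-expressed wild-type HIV-1 protease ([…]) was preincubated with inhibitor 30 min at room temperature in pH 5.5 acetate buffer (100 mM NaCl, 0.1% BSA). Then 400 μM octapeptide substrate was added and reacted 1 h at 30 °C; inhibition came from LC-MS/MS product peak areas, mean of ≥2 experiments.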", "data": [{"smiles": "N=C1NC(c2ccc(F)cc2)(c2ccc(F)cc2)C(=O)N1Cc1cccc(C(=O)N2Cc3ccc(C(F)(F)F)cc3C2)c1", "note": "[Compound 317, 5,5-bis(4-fluorophenyl)-2-imino-3-(3-{[5-(trifluoromethyl)-1,3-dihydro-2H-isoindol-2-yl]carbonyl}benzyl)-imidazolidin-4-one]", "values": [{"measurement": "IC50", "result": 54.9, "unit": "nM"}]}, {"smiles": "CC(C)CC1(c2ccccc2)NC(=N)N(Cc2cccc(C(=O)N3CCc4ccccc4C3)c2)C1=O", "note": "(stereo not shown) [Compound 318, 3-[3-(3,4-dihydroisoquinolin-2(1H)-ylcarbonyl)benzyl]-2-imino-5-(2-methyl-propyl)-5-phenylimidazolidin-4-one]", "values": [{"measurement": "IC50", "result": 56.2, "unit": "nM"}]}, {"smiles": "N=C1NC(c2ccc(F)cc2)(c2ccc(F)cc2)C(=O)N1Cc1cccc(C(=O)N2CCC(n3c(=O)oc4ccccc43)CC2)c1", "note": "[Compound 319, 3-{1-[(3-{[4,4-bis(4-fluorophenyl)-2-imino-5-oxoimidazolidin-1-yl]methyl}phenyl)carbonyl]piperidin-4-yl}-1,3-benzoxazol-2(3H)-one]", "values": [{"measurement": "IC50", "result": 56.2, "unit": "nM"}]}, {"smiles": "CCCC1(c2ccccc2)NC(=N)N(Cc2cccc(C(=O)N3CCN(c4ncccn4)CC3)c2)C1=O", "note": "(stereo not shown) [Compound 320, 2-imino-5-phenyl-5-propyl-3-{3-[(4-pyrimidin-2-ylpiperazin-1-yl)carbonyl]benzyl} imidazolidin-4-one]", "values": [{"measurement": "IC50", "result": 56.7, "unit": "nM"}]}, {"smiles": "CC(C)CC1(c2ccccc2)NC(=N)N(Cc2cccc(C(=O)N3CCN(c4ccccn4)CC3)c2)C1=O", "note": "(stereo not shown) [Compound 321, 2-imino-5-(2-methylpropyl)-5-phenyl-3-{3-[(4-pyridin-2-ylpiperazin-1-yl)carbonyl]benzyl} imidazolidin-4-one]", "values": [{"measurement": "IC50", "result": 56.8, "unit": "nM"}]}, {"smiles": "CC1c2cc(Cl)c(Cl)cc2CN1C(=O)c1cccc(CN2C(=N)NC(c3ccccc3)(c3ccccc3)C2=O)c1", "note": "(stereo not shown) [Compound 322, 3-{3-[(5,6-dichloro-1-methyl-1,3-dihydro-2H-isoindol-2-yl)carbonyl]benzyl}-2-imino-5,5-diphenylimidazolidin-4-one]", "values": [{"measurement": "IC50", "result": 56.9, "unit": "nM"}]}, {"smiles": "CC(=O)N1CCN(C(=O)c2cc(F)cc(CN3C(=N)NC(c4ccccc4)(c4ccccc4)C3=O)c2)CC1", "note": "[Compound 323, 3-{3-[(4-acetylpiperazin-1-yl)carbonyl]-5-fluorobenzyl}-2-imino-5,5-diphenylimidazolidin-4-one]", "values": [{"measurement": "IC50", "result": 57, "unit": "nM"}]}, {"smiles": "N=C1NC(c2ccccc2)(c2ccccc2)C(=O)N1Cc1cccc(C(=O)N2CCN(c3ccccc3)CC2)c1", "note": "[Compound 324, 2-imino-5,5-diphenyl-3-{3-[(4-phenylpiperazin-1-yl)carbonyl]benzyl} imidazolidin-4-one]", "values": [{"measurement": "IC50", "result": 57.7, "unit": "nM"}]}, {"smiles": "C[C@@H](c1cccc(C(=O)N2Cc3ccccc3C2)c1)N1C(=N)NC(c2ccc(F)cc2)(c2ccc(F)cc2)C1=O", "note": "[Compound 325, 3-{(1S)-1-[3-(1,3-dihydro-2H-isoindol-2-ylcarbonyl)phenyl]ethyl}-5,5-bis(4-fluorophenyl)-2-iminoimidazolidin-4-one]", "values": [{"measurement": "IC50", "result": 58.5, "unit": "nM"}]}, {"smiles": "CC(C)NC(=O)N1CCN(C(=O)c2cccc(CN3C(=N)NC(c4ccccc4)(c4ccccc4)C3=O)c2)CC1", "note": "[Compound 326, 4-({3-[(2-imino-5-oxo-4,4-diphenylimidazolidin-1-yl)methyl]phenyl}carbonyl)-N-(1-methylethyl) piperazine-1-carboxamide]", "values": [{"measurement": "IC50", "result": 59.4, "unit": "nM"}]}, {"smiles": "CN(C)C(=O)c1nc2n(c1Cl)CCN(C(=O)c1cccc(CN3C(=N)NC(c4ccccc4)(c4ccccc4)C3=O)c1)C2", "note": "[Compound 327, 3-chloro-7-({3-[(2-imino-5-oxo-4,4-diphenylimidazolidin-1-yl)methyl]phenyl}carbonyl)-N,N-dimethyl-5,6,7,8-tetrahydroimidazo[1,2-a]pyrazine-2-carboxamide]", "values": [{"measurement": "IC50", "result": 64.2, "unit": "nM"}]}, {"smiles": "CC(C)C[C@]1(c2ccccc2)NC(=N)N([C@H](C)c2cccc(C(=O)N3CCN(C)C(=O)C3)c2)C1=O", "note": "[Compound 328, 4-[(3-{(1R)-1-[2-imino-4-(2-methylpropyl)-5-oxo-4-phenylimidazolidin-1-yl]ethyl}phenyl)carbonyl]-1-methylpiperazin-2-one]", "values": [{"measurement": "IC50", "result": 64.8, "unit": "nM"}]}, {"smiles": "N=C1NC(c2ccccc2)(c2ccccc2)C(=O)N1Cc1cccc(C(=O)N2CCn3c(nnc3C(F)(F)F)C2)c1", "note": "[Compound 329, 2-imino-5,5-diphenyl-3-(3-{[3-(trifluoromethyl)-5,6-dihydro[1,2,4]triazolo[4,3-a]pyrazin-7(8H)-yl]carbonyl}benzyl) imidazolidin-4-one]", "values": [{"measurement": "IC50", "result": 66.9, "unit": "nM"}]}, {"smiles": "COC(=O)N1CCN(C(=O)c2cccc(CN3C(=N)NC(c4ccccc4)(c4ccccc4)C3=O)c2)CC1", "note": "[Compound 330, methyl 4-({3-[(2-imino-5-oxo-4.4-diphenylimidazolidin-1-yl)methyl]phenyl}carbonyl) piperazine-1-carboxylate]", "values": [{"measurement": "IC50", "result": 67, "unit": "nM"}]}, {"smiles": "C[C@@H](c1cccc(C(=O)N2Cc3ccccc3C2)c1)N1C(=N)NC(c2ccccc2)(c2ccccc2)C1=O", "note": "[Compound 331, 3-{(1S)-1-[3-(1,3-dihydro-2H-isoindol-2-ylcarbonyl)phenyl]ethyl}-2-imino-5,5-diphenylimidazolidin-4-one]", "values": [{"measurement": "IC50", "result": 67.6, "unit": "nM"}]}, {"smiles": "N=C1NC(c2ccc(F)cc2)(c2ccc(F)cc2)C(=O)N1Cc1cccc(C(=O)N2CCC(n3c(=O)[nH]c4ncccc43)CC2)c1", "note": "[Compound 332, 1-{1-[(3-{[4,4-bis(4-fluorophenyl)-2-imino-5-oxoimidazolidin-1-yl]methyl}phenyl)carbonyl]piperidin-4-yl}-1,3-dihydro-2H-imidazo[4,5-b]pyridin-2-one]", "values": [{"measurement": "IC50", "result": 68, "unit": "nM"}]}, {"smiles": "N=C1NC(c2ccccc2)(c2ccccc2)C(=O)N1Cc1cccc(C(=O)N2CCC(Oc3ccccc3)CC2)c1", "note": "[Compound 333, 2-imino-3-{3-[(4-phenoxypiperidin-1-yl)carbonyl]benzyl}-5,5-diphenylimidazolidin-4-one]", "values": [{"measurement": "IC50", "result": 69.6, "unit": "nM"}]}, {"smiles": "N=C1NC(c2ccccc2)(c2ccccc2)C(=O)N1Cc1cccc(C(=O)N2CCc3ccc(C(F)(F)F)cc3C2)c1", "note": "[Compound 334, 2-imino-5,5-diphenyl-3-(3-{[7-(trifluoromethyl)-3,4-dihydroisoquinolin-2(1H)-yl]carbonyl}benzyl) imidazolidin-4-one]", "values": [{"measurement": "IC50", "result": 70, "unit": "nM"}]}, {"smiles": "CC(=O)N1CCN(C(=O)c2cccc(CN3C(=N)NC(c4ccc(F)cc4)(c4ccc(F)cc4)C3=O)c2)CC1", "note": "[Compound 335, 3-{3-[(4-acetylpiperazin-1-yl)carbonyl]benzyl}-5,5-bis(4-fluorophenyl)-2-iminoimidazolidin-4-one]", "values": [{"measurement": "IC50", "result": 70.5, "unit": "nM"}]}, {"smiles": "N=C1NC(c2ccccc2)(c2ccccc2)C(=O)N1Cc1cccc(C(=O)N2CCc3cc(C(F)(F)F)ccc3C2)c1", "note": "[Compound 336, 2-imino-5,5-diphenyl-3-(3-{[6-(trifluoromethyl)-3,4-dihydroisoquinolin-2(1H)-yl]carbonyl}benzyl) imidazolidin-4-one]", "values": [{"measurement": "IC50", "result": 71, "unit": "nM"}]}, {"smiles": "N=C1NC(c2ccccc2)(c2ccccc2)C(=O)N1Cc1cccc(C(=O)N2CCn3c(Cc4ccccc4)cnc3C2)c1", "note": "[Compound 337, 3-{3-[(3-benzyl-5,6-dihydroimidazo [1,2-a]pyrazin-7(8H)-yl)carbonyl]benzyl}-2-imino-5,5-diphenylimidazolidin-4-one]", "values": [{"measurement": "IC50", "result": 72, "unit": "nM"}]}, {"smiles": "N=C1NC(c2ccc(F)cc2)(c2ccc(F)cc2)C(=O)N1Cc1cccc(C(=O)N2CCC(n3c(=O)[nH]c4ccccc43)CC2)c1", "note": "[Compound 338, 1-{1-[(3-{[4,4-bis(4-fluorophenyl)-2-imino-5-oxoimidazolidin-1-yl]methyl}phenyl)carbonyl]piperidin-4-yl}-1,3-dihydro-2H-benzimidazol-2-one]", "values": [{"measurement": "IC50", "result": 73.5, "unit": "nM"}]}]}
